In ChEMBL document CHEMBL1201862, “PubChem BioAssay data set” (2004):
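Each compound was tested at five concentrations against cells in 96-well plates for 48 hours. Here, GI50 denotes the concentration required for 50% inhibition of growth.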 Calls of active or inactive are those of the source. Rule as the data show it: active = GI50 up to about 1.1 µM and inactive = higher.

Columns and labels:
Assay in all cases: NCI tumour cell line growth inhibition, 48 h
[1] = test system: SF-539
[2] = test system: UACC-257
[3] = test system: HCT-116
[4] = test system: Malme-3M
[5] = test system: NCI-H226
[6] = test system: HCT-15
[7] = test system: UO-31
[8] = test system: RXF 393
[9] = test system: HT-29
[10] = test system: CAKI-1
[11] = test system: HOP-62
[12] = test system: TK-10
[13] = test system: MOLT-4
[14] = test system: SF-268
[15] = test system: A549
[16] = test system: OVCAR-5
[17] = test system: 786-0

SMILES	GI50 [1]	GI50 [2]	GI50 [3]	GI50 [4]	GI50 [5]	GI50 [6] [µM]	GI50 [7]	GI50 [8]	GI50 [9]	GI50 [10]	GI50 [11]	GI50 [12]	GI50 [13]	GI50 [14]	GI50 [15]	GI50 [16]	GI50 [17]
COc1cc(C2c3cc4c(cc3[C@@H](Nc3ccc(C(=O)O)cc3)C3COC(=O)[C@H]23)OCO4)cc(OC)c1O (stereo partly drawn)	6.56 µM (inactive)	27.2 µM (inactive)	19.4 µM (inactive)	13.7 µM (inactive)	3.72 µM (inactive)	13.4	22.5 µM (inactive)	9.35 µM (inactive)	22 µM (inactive)	4.98 µM (inactive)	8.15 µM (inactive)	27.8 µM (inactive)	0.721 µM (active)	14.6 µM (inactive)	18.3 µM (inactive)	–	–
O=C(/C=C/C1C(=O)NC(=O)NC1=O)CC(=O)C(=O)Nc1cc(Cl)c(Cl)cc1Cl	> 100 µM (inactive)	> 100 µM (inactive)	> 100 µM (inactive)	> 100 µM (inactive)	> 100 µM (inactive)	> 100	> 100 µM (inactive)	> 100 µM (inactive)	> 100 µM (inactive)	> 100 µM (inactive)	> 100 µM (inactive)	> 100 µM (inactive)	> 100 µM (inactive)	> 100 µM (inactive)	> 100 µM (inactive)	> 100 µM (inactive)	> 100 µM (inactive)
C=CCC12CC(=O)CCC1CC(=O)C2 (stereo not drawn)	> 100 µM (inactive)	> 100 µM (inactive)	> 100 µM (inactive)	> 100 µM (inactive)	> 100 µM (inactive)	> 100	> 100 µM (inactive)	> 100 µM (inactive)	–	> 100 µM (inactive)	> 100 µM (inactive)	> 100 µM (inactive)	> 100 µM (inactive)	> 100 µM (inactive)	> 100 µM (inactive)	–	> 100 µM (inactive)
CN1C(=O)CN2C(Cl)(Cl)C2(c2ccccc2F)c2cc([N+](=O)[O-])ccc21 (stereo not drawn)	–	64.4 µM (inactive)	31.7 µM (inactive)	18.4 µM (inactive)	16.2 µM (inactive)	41.4	42.7 µM (inactive)	14.6 µM (inactive)	39.1 µM (inactive)	> 100 µM (inactive)	> 100 µM (inactive)	60.7 µM (inactive)	17.3 µM (inactive)	51.1 µM (inactive)	–	> 100 µM (inactive)	–
CCC(=O)O[C@@H]1C2C(OC(C)=O)C34COC(C)([C@@H]3C3C(C[C@]3(C)OC(C)=O)[C@@H](OC(=O)c3ccccc3)C4=O)[C@H](OC(C)=O)[C@@]2(OC(C)=O)C[C@@H]1C (stereo partly drawn)	14.9 µM (inactive)	87.9 µM (inactive)	30.7 µM (inactive)	36.6 µM (inactive)	20 µM (inactive)	16	59.8 µM (inactive)	–	> 100 µM (inactive)	> 100 µM (inactive)	25.1 µM (inactive)	15.1 µM (inactive)	> 100 µM (inactive)	44.1 µM (inactive)	> 100 µM (inactive)	94.4 µM (inactive)	11.7 µM (inactive)
CON(C)C(=O)CCCO	> 100 µM (inactive)	> 100 µM (inactive)	> 100 µM (inactive)	> 100 µM (inactive)	> 100 µM (inactive)	> 100	> 100 µM (inactive)	> 100 µM (inactive)	> 100 µM (inactive)	> 100 µM (inactive)	> 100 µM (inactive)	> 100 µM (inactive)	> 100 µM (inactive)	> 100 µM (inactive)	> 100 µM (inactive)	–	> 100 µM (inactive)
CC1(O)C=CC2CCC1C2O (stereo not drawn)	> 100 µM (inactive)	> 100 µM (inactive)	19.7 µM (inactive)	> 100 µM (inactive)	> 100 µM (inactive)	> 100	> 100 µM (inactive)	87.5 µM (inactive)	> 100 µM (inactive)	> 100 µM (inactive)	> 100 µM (inactive)	> 100 µM (inactive)	> 100 µM (inactive)	29.3 µM (inactive)	68.9 µM (inactive)	> 100 µM (inactive)	25.4 µM (inactive)
CC(C)N(C(=O)C12C3C4C1C1C4(C#N)C3C12C#N)C(C)C (stereo not drawn)	> 100 µM (inactive)	> 100 µM (inactive)	–	> 100 µM (inactive)	> 100 µM (inactive)	> 100	> 100 µM (inactive)	> 100 µM (inactive)	> 100 µM (inactive)	> 100 µM (inactive)	> 100 µM (inactive)	> 100 µM (inactive)	> 100 µM (inactive)	> 100 µM (inactive)	> 100 µM (inactive)	> 100 µM (inactive)	> 100 µM (inactive)
CCNC1=Nc2ccccc2-n2c(nn3nc4ccccc4c23)N1CC	> 100 µM (inactive)	> 100 µM (inactive)	> 100 µM (inactive)	–	> 100 µM (inactive)	> 100	–	> 100 µM (inactive)	82.6 µM (inactive)	–	> 100 µM (inactive)	–	30.2 µM (inactive)	> 100 µM (inactive)	> 100 µM (inactive)	> 100 µM (inactive)	> 100 µM (inactive)
O=C(O)CNS(=O)(=O)c1ccc(NC(=O)c2ccc([N+](=O)[O-])cc2)cc1	> 100 µM (inactive)	> 100 µM (inactive)	–	> 100 µM (inactive)	> 100 µM (inactive)	> 100	> 100 µM (inactive)	> 100 µM (inactive)	> 100 µM (inactive)	> 100 µM (inactive)	–	> 100 µM (inactive)	> 100 µM (inactive)	> 100 µM (inactive)	> 100 µM (inactive)	> 100 µM (inactive)	> 100 µM (inactive)
O=[N+]([O-])c1ccc(C2SCc3nc4ccccc4n32)cc1 (stereo not drawn)	> 100 µM (inactive)	42.4 µM (inactive)	–	40.1 µM (inactive)	29.2 µM (inactive)	–	24.8 µM (inactive)	36.7 µM (inactive)	> 100 µM (inactive)	61.4 µM (inactive)	> 100 µM (inactive)	43.4 µM (inactive)	28.1 µM (inactive)	> 100 µM (inactive)	50.4 µM (inactive)	17.6 µM (inactive)	> 100 µM (inactive)
C[C@@H]1CC2(C[C@@H](C)C3[C@@H](CC4(C)CCCC5C6=CC(O)(CC[C@]34C)OC6=CC(=O)OC5(C)C)O2)OC1=O (stereo partly drawn)	> 100 µM (inactive)	–	> 100 µM (inactive)	> 100 µM (inactive)	> 100 µM (inactive)	> 100	> 100 µM (inactive)	> 100 µM (inactive)	–	–	–	> 100 µM (inactive)	> 100 µM (inactive)	–	> 100 µM (inactive)	> 100 µM (inactive)	> 100 µM (inactive)
OCC1O[C@H](O[C@@H]2CCCN3CC(O)C(O)[C@@H]23)C(O)C(O)C1O (stereo partly drawn)	> 100 µM (inactive)	> 100 µM (inactive)	> 100 µM (inactive)	> 100 µM (inactive)	> 100 µM (inactive)	> 100	> 100 µM (inactive)	–	> 100 µM (inactive)	> 100 µM (inactive)	> 100 µM (inactive)	> 100 µM (inactive)	> 100 µM (inactive)	> 100 µM (inactive)	> 100 µM (inactive)	> 100 µM (inactive)	–
CC1OC(OCC2OC(Oc3c(-c4ccc(O)cc4)oc4cc(O)cc(O)c4c3=O)C(OC3OC(C)C(O)C(O)C3O)C(O)C2O)C(O)C(O)C1O (stereo not drawn)	> 100 µM (inactive)	> 100 µM (inactive)	> 100 µM (inactive)	> 100 µM (inactive)	> 100 µM (inactive)	> 42.3	> 100 µM (inactive)	> 100 µM (inactive)	> 100 µM (inactive)	> 100 µM (inactive)	> 100 µM (inactive)	> 100 µM (inactive)	> 100 µM (inactive)	> 100 µM (inactive)	> 100 µM (inactive)	> 100 µM (inactive)	> 100 µM (inactive)
CCN1C(C)=NC2C(=O)c3ccccc3C(=O)C21 (stereo not drawn)	40.3 µM (inactive)	31.2 µM (inactive)	36.2 µM (inactive)	40 µM (inactive)	63 µM (inactive)	57.4	> 100 µM (inactive)	> 100 µM (inactive)	28.8 µM (inactive)	–	37.4 µM (inactive)	> 100 µM (inactive)	43 µM (inactive)	57.7 µM (inactive)	41.6 µM (inactive)	–	65.5 µM (inactive)
CC(=O)N/C(=C\c1ccccc1/C=C(\NC(C)=O)c1nc2cc(C)c(C)cc2[nH]1)c1nc2cc(C)c(C)cc2[nH]1	19.7 µM (inactive)	–	5.48 µM (inactive)	21.7 µM (inactive)	25.8 µM (inactive)	> 10	3.22 µM (inactive)	–	34.8 µM (inactive)	11.5 µM (inactive)	14.2 µM (inactive)	24.4 µM (inactive)	20.3 µM (inactive)	24.1 µM (inactive)	28 µM (inactive)	36.8 µM (inactive)	18.7 µM (inactive)
CC(/C=C/c1ncccc1OCCCCCC(=O)O)=N\NC1=NCCN1	> 100 µM (inactive)	–	> 100 µM (inactive)	> 100 µM (inactive)	> 100 µM (inactive)	> 100	> 100 µM (inactive)	68.1 µM (inactive)	> 100 µM (inactive)	> 100 µM (inactive)	> 100 µM (inactive)	65.3 µM (inactive)	> 100 µM (inactive)	> 100 µM (inactive)	> 100 µM (inactive)	> 100 µM (inactive)	–
CCOC(=O)C1=C(C)N(NC(=O)OC)C2(N)N(NC(=O)OC)C(C)=C(C(=O)OCC)C12C#N (stereo not drawn)	> 100 µM (inactive)	> 100 µM (inactive)	> 100 µM (inactive)	> 100 µM (inactive)	> 100 µM (inactive)	> 100	> 100 µM (inactive)	–	> 100 µM (inactive)	> 100 µM (inactive)	> 100 µM (inactive)	–	> 100 µM (inactive)	> 100 µM (inactive)	> 100 µM (inactive)	> 100 µM (inactive)	> 100 µM (inactive)
